Experimental data taken from PubChem BioAssay (NCI).
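Grown in 96-well plates, cells were treated for 48 hours with each compound at five concentrations. Insufficient inhibition: endpoint recorded as highest concentration tested. TGI is the concentration that stops growth completely.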 Where a SMILES comes first, the peptide text is derived from it. The star is where a group is joined. Bn = c1ccc(C*)cc1

Columns and labels:
Experiment in all cases: DTP human tumour cell line panel, 48 h
DU-145 prostate = test system: DU-145 prostate
HOP-92 NSCLC = test system: HOP-92 NSCLC
HS 578T breast = test system: HS 578T breast
HT29 colon = test system: HT29 colon
MDA-N = test system: MDA-N
NCI/ADR-RES ovarian = test system: NCI/ADR-RES ovarian
SF-539 CNS = test system: SF-539 CNS
SNB-75 CNS = test system: SNB-75 CNS
SR leukemia = test system: SR leukemia
U251 CNS = test system: U251 CNS

Structure (SMILES)	TGI (DU-145 prostate)	TGI (HOP-92 NSCLC)	TGI (HS 578T breast)	TGI (HT29 colon)	TGI (MDA-N)	TGI (NCI/ADR-RES ovarian)	TGI (SF-539 CNS)	TGI (SNB-75 CNS)	TGI (SR leukemia)	TGI (U251 CNS)
COc1cc(CC(C)N)ccc1O (stereo not given)	> 100 µM	> 100 µM	> 100 µM	> 100 µM	> 100 µM	> 100 µM	> 100 µM	> 100 µM	> 100 µM	> 100 µM
NS(=O)(=O)c1ccc(NC(NC(=O)C(C(F)(F)F)C(F)(F)F)(C(F)(F)F)C(F)(F)F)cc1	> 100 µM	> 100 µM	> 100 µM	> 100 µM	> 100 µM	> 100 µM	> 100 µM	> 100 µM	> 100 µM	> 100 µM
O=C1CS(=O)C23c4cc5ccccc5n4CCC2CCCN13 (stereo not given)	> 100 µM	> 100 µM	> 100 µM	> 100 µM	> 100 µM	> 100 µM	> 100 µM	–	> 100 µM	> 100 µM
COC(=O)c1cc2c(cc1CC(Cc1ccc3c(c1)CCC3)C(=O)OC)CCC2 (stereo not given)	> 100 µM	> 100 µM	> 100 µM	> 100 µM	> 100 µM	> 100 µM	> 100 µM	> 100 µM	57.4 µM	> 100 µM
O=c1n(Cc2ccccc2)c(=O)n2c(=O)n(Cc3ccccc3)c(=O)n12	> 100 µM	> 100 µM	> 100 µM	> 100 µM	> 100 µM	> 100 µM	> 100 µM	> 100 µM	> 100 µM	> 100 µM
CC/C(Cl)=N\OC(=O)Nc1ccc(F)c([N+](=O)[O-])c1	36.9 µM	12 µM	31.7 µM	> 57.8 µM	39.6 µM	75.8 µM	> 100 µM	38.9 µM	> 68.6 µM	46.3 µM
Cc1cc2nc(-c3cc(C(C)(C)C)c(O)c(C(C)(C)C)c3)[nH]c2cc1C	> 100 µM	> 100 µM	> 100 µM	> 100 µM	> 44.5 µM	> 100 µM	> 100 µM	> 100 µM	> 31.7 µM	> 34.3 µM
COC(=O)c1cc(C)ccc1CC(Cc1ccc(C)cc1)C(=O)OC (stereo not given)	> 100 µM	60.2 µM	> 100 µM	80.4 µM	> 100 µM	> 100 µM	> 100 µM	> 90.7 µM	> 100 µM	> 100 µM
COC(=O)C(CC(C)C)NC(=O)C(N)Cc1ccc(OCc2ccccc2)cc1 (stereo not given) (H-Tyr(Bn)-Leu-OMe; configuration not given here)	> 10 µM	> 10 µM	> 10 µM	> 10 µM	> 10 µM	> 10 µM	> 10 µM	> 10 µM	> 10 µM	> 10 µM
COc1ccc(N=Nc2c3c(c(O)c4ccccc24)CCC(C)(C)O3)cc1	71.8 µM	47.1 µM	66.7 µM	27.6 µM	30.6 µM	> 100 µM	62.3 µM	52.9 µM	39.1 µM	37.9 µM
O=C1CCCc2cc3c(cc21)CC1(C3)Cc2ccc3c(c2C1)C(=O)CCC3 (stereo not given)	> 100 µM	> 100 µM	> 100 µM	> 100 µM	26.1 µM	37 µM	> 100 µM	80.4 µM	40.3 µM	> 100 µM
COc1c(O)c(O)cc2c1-c1ccc(OC)c(=O)cc1C(NC(C)=O)CC2 (stereo not given)	40.6 µM	17.8 µM	> 24.9 µM	16 µM	4.84 µM	> 69.8 µM	10.4 µM	63.9 µM	> 100 µM	28.9 µM
COC(=O)[C@H](Cc1ccccc1)NC(=O)c1ccc(CNC(=O)/C=C/c2cccc(Oc3ccccc3)c2)cc1	> 100 µM	21 µM	46.3 µM	> 100 µM	15.3 µM	> 100 µM	–	> 100 µM	> 100 µM	> 100 µM
COc1ccc(N=NC(=Nc2ccc(F)cc2)c2ccc(N(CCC#N)CCC#N)cc2)cc1	> 100 µM	72.9 µM	86.4 µM	> 100 µM	> 100 µM	> 100 µM	> 100 µM	84.1 µM	> 100 µM	84.4 µM
O=C1CC(Sc2nc3ccc(I)cc3c(=O)n2Cc2ccccc2)C(=O)NN1 (stereo not given)	34.8 µM	37.2 µM	42.4 µM	38.6 µM	33.4 µM	52.1 µM	35.5 µM	24.5 µM	24 µM	29.4 µM
O=C1CCc2ccc3c(c21)CC1(Cc2ccccc2C1)C3	> 100 µM	45.9 µM	> 100 µM	22 µM	> 100 µM	53.6 µM	> 100 µM	> 100 µM	78.8 µM	74 µM
N#CCCN(CCC#N)c1ccc(/C=C2\SC(=S)NC2=O)cc1Br	> 100 µM	> 100 µM	27.1 µM	> 100 µM	> 100 µM	> 100 µM	> 100 µM	> 100 µM	> 100 µM	35.1 µM

Structure (SMILES)	TGI (DU-145 prostate)	TGI (HOP-92 NSCLC)	TGI (HS 578T breast)	TGI (HT29 colon)	TGI (MDA-N)	TGI (NCI/ADR-RES ovarian)	TGI (SF-539 CNS)	TGI (SNB-75 CNS)	TGI (SR leukemia)	TGI (U251 CNS)
CCc1nc2cc3cccnc3c(Cl)c2[nH]c1=O	> 100 µM	> 100 µM	> 100 µM	> 100 µM	> 100 µM	> 100 µM	–	50.4 µM	> 100 µM	> 100 µM
CC1C(c2ccc3c(c2)OCO3)c2cc3c(cc2OC1N1CCOCC1)OCO3 (stereo not given)	> 100 µM	78.4 µM	55.2 µM	> 85 µM	29.1 µM	60.6 µM	49.5 µM	99.3 µM	> 80.2 µM	> 83.8 µM
COC(=O)C1=C(C)NC(C)=C([N+](=O)[O-])C1c1cccc(N=O)c1 (stereo not given)	28.7 µM	12.8 µM	39.1 µM	33.1 µM	21.6 µM	45.9 µM	30.9 µM	–	> 100 µM	32 µM
COc1cc2c(cc1OC)C13CC[N+]4(C)CC5=CCOC6CC(=O)N2C1C6C5CC34[O-] (stereo not given)	> 100 µM	> 100 µM	> 100 µM	–	> 100 µM	> 100 µM	> 100 µM	> 100 µM	> 100 µM	> 100 µM
Cc1cn2c(C)csc2c1P(=O)(OC(C)C)OC(C)C	> 100 µM	> 100 µM	> 100 µM	> 100 µM	> 100 µM	> 100 µM	> 100 µM	> 100 µM	> 100 µM	> 100 µM
CC12CC1C(c1cccc([N+](=O)[O-])c1)(c1cccc([N+](=O)[O-])c1)N=N2 (stereo not given)	> 100 µM	34.7 µM	78 µM	> 100 µM	50.5 µM	59.3 µM	52.9 µM	> 100 µM	55.8 µM	51 µM
C=C(C)[C@@]1(O[Si](C)(C)C)CCCC[C@@H]1CC(Sc1ccccc1)Sc1ccccc1	29.7 µM	26 µM	29.7 µM	34.8 µM	32.7 µM	32 µM	26.5 µM	25.7 µM	31.5 µM	30.7 µM
OC1(c2ccc(Cl)cc2)c2ccc(CN3CCCC3)cc2C2=NCCN21 (stereo not given)	32.2 µM	16.1 µM	26 µM	26.7 µM	22.8 µM	> 100 µM	25.9 µM	18.5 µM	33.1 µM	27.2 µM
O=C(O)c1ccc2c(c1)CC1(C2)Cc2cc3c(cc2C1=O)CCC3 (stereo not given)	> 100 µM	> 100 µM	> 100 µM	> 100 µM	> 100 µM	> 100 µM	> 100 µM	> 100 µM	> 100 µM	> 100 µM
Nc1nc(Nc2ccccc2)sc1C(=O)c1c[nH]c2ccccc12	22.5 µM	33.2 µM	42.5 µM	14.6 µM	25.3 µM	44.7 µM	27.4 µM	–	5.12 µM	23.6 µM
CCOC(=O)C(C)c1nc2c(Cl)c3ncccc3cc2[nH]c1=O (stereo not given)	> 100 µM	> 100 µM	90.4 µM	> 100 µM	> 100 µM	> 100 µM	–	> 100 µM	99.2 µM	> 100 µM
COC(=O)C1(Cc2ccc3c(c2)CCC3)Cc2cc3c(cc2C1)CCC3	> 100 µM	> 100 µM	> 100 µM	89.3 µM	> 100 µM	> 100 µM	> 100 µM	> 100 µM	> 100 µM	> 100 µM
COc1ccc(N=C2C(=S)N(c3ccc(OC)cc3)/C(=N/S(=O)(=O)c3ccccc3)N2c2ccccc2)cc1	> 48.8 µM	20.7 µM	> 66.1 µM	> 64.4 µM	8.81 µM	> 71.4 µM	25.1 µM	35.1 µM	> 66.4 µM	28.8 µM
Cn1ccnc1Sc1ccc(C=Nc2ccc3nc(SCC(=O)NC4CCCCC4)sc3c2)cc1[N+](=O)[O-]	> 100 µM	32.5 µM	96.3 µM	> 100 µM	> 100 µM	> 100 µM	22.3 µM	8.84 µM	> 100 µM	33.9 µM
O=C(CCc1cccc(O)c1)NCCCNC(=O)CCc1cccc(O)c1	> 100 µM	> 100 µM	> 100 µM	> 100 µM	> 100 µM	> 100 µM	> 100 µM	–	> 100 µM	> 100 µM
Cc1cn([C@H]2C[C@](C)(CO)N(C)O2)c(=O)[nH]c1=O	> 100 µM	> 100 µM	> 100 µM	> 100 µM	> 100 µM	> 100 µM	–	> 100 µM	> 100 µM	> 100 µM
CCCOC(=O)NC(C)C(=O)NC(CCC(=O)NC(CCCC(N)C(=O)O)C(=O)NC(C)C(=O)O)C(=O)O (stereo not given)	65.3 µM	77.4 µM	40.5 µM	38.4 µM	44.6 µM	37 µM	31.3 µM	–	32.4 µM	55.9 µM
